# According to patent US10336752B2, “TYK2 inhibitors, uses, and methods for production thereof” (Nimbus Lakshmi, Inc., priority 2017, dated 2019):
# What was measured:
# [1] = CACO-2 Cell Permeability Assay; type: in vitro ADME; details: human, Caco-2, pH 7.4, apical to basolateral
# Description: Caco-2 cells were diluted to 6.86×10^5 cells/mL with culture medium and 50 μL of cell suspension were dispensed into the filter well of the 96-well HTS Transwell plate. Cells were cultivated for 14˜18 days in a cell culture incubator at 37° C., 5% C02, 95% relative humidity. Cell culture medium was replaced every 2 days, beginning no later than 24 hours after initial plating. 3) After 14˜18 days incubation, the plates were removed from incubator. The inserts were washed twice with pre-warmed HBSS (10 mM HEPES, pH 7.4) and placed into receiver plates. 75 μL and 235 μL of buffer were added to each Transwell inserts and receiver wells, respectively. Then the plates were incubated for 30 min at 37° C. with shaking at 150 rpm. Stock solutions of control compound were prepared in DMSO at 10 mM and then diluted to 1 mM with DMSO followed by further diluting with HBSS (10 mM HEPES, pH 7.4) to get compound working solution. Stock solutions of test compound were prepared in DMSO at 10 mM and then diluted to 1 mM with DMSO followed by further diluting with HBSS (10 mM HEPES, pH 7.4, 4% BSA) to get compound working solution. The final concentration of test compound and control compound was 5 μM. To determine the rate of drug transport in the apical to basolateral direction, 75 μL of compound working solution was added to the filter well (apical compartment) and 235 μL of HBSS (10 mM HEPES, pH 7.4, or 4% BSA) to receiver plate (basolateral compartment). To determine the rate of drug transport in the basolateral to apical direction, 235 μL of compound working solution was added to each well of the receiver plate (basolateral compartment) and 75 μL of HBSS (10 mM HEPES, pH 7.4, or 4% BSA) to filter well (apical compartment). The assay was performed in duplicate. 6) Plates were incubated for 2 hours at 37° C. At the end of the transport period, aliquots of 50 μL were removed directly from the apical and basolateral wells and transferred to wells of new plates. Four volumes of cold Methanol containing internal standards (IS, 100 nM Alprazolam, 200 nM Labetalol and 200 nM Diclofenac) was added into each well. Samples were centrifuged at 3,220 g for 30 minutes. An aliquot of 100 μL of the supernatant mixed with 100 μL of ultra-pure water were used for LC-MS/MS analysis. 7) Solution was discarded from Transwell plates. 100 μL of Lucifer Yellow solution (100 μM in HBSS) and 300 μL of HBSS were added into each well of Transwell insert and receiver, respectively, for leakage determination. Plates were incubated at 37° C. for 30 minutes. 80 μL aliquots from wells of apical and basolateral sides were transferred to solid black plates and the plate was read with Tecan Infinite M 200 (Excitation/Emission wavelength 485 nm/530 nm). The liquid fractions, apical and basolateral layers were analyzed by LC-MS to determine Papp(A-B), Papp(B-A) and recovery.
# [2] = Metabolic Clearance Assay in Microsomes (human liver microsomes); type: in vitro ADME; details: NADPH and UDPGA, read-out: HLM Clint
# Description: A master solution was prepared containing 0.5 mg/mL of either rat or human liver microsomes, 5 mM MgCl2, 100 mM phosphate buffer, and 25 ug/mL alamethacin. 40 μL of 10 mM NADPH solution and 40 μL of 20 mM UDPGA solution were added to each well. The final concentrations of NADPH and UDPGA were 1 mM and 2 mM, respectively. The mixture was pre-warmed at 37° C. for 5 minutes. The negative control samples were prepared by replacing NADPH and UDPGA solutions with 80 μL of ultra-pure H2O. The negative control was used to exclude the misleading factor that resulted from instability of chemical itself. This study was performed in duplicate. The reaction was started with the addition of 2 μL of 400 μM control compound or test compound solutions. Diclofenac was used as positive control in this study. The final concentration of test compound or control compound was 2 μM. Aliquots of 50 μL were taken from the reaction solution at 0, 15, 30, 45 and 60 minutes. The reaction was stopped by the addition of 4 volumes of cold acetonitrile (or methanol) with internal standard (IS) (100 nM alprazolam, 200 nM imipramine, 200 nM labetalol and 2 μM ketoprofen) at the designated time points. Samples were centrifuged at 3,220 g for 40 minutes to precipitate protein. Aliquot of 100 μL supernatant diluted by 100 μL of water was used for LC-MS/MS analysis. The in vitro half-life, scale-up intrinsic clearance, and predicted hepatic clearance were calculated according to standard calculations.
# [3] = Kinetic Solubility Determination Assay; type: physicochemical; details: aqueous buffer, kinetic from dmso stock, PBS pH 7.4, RT, read-out: Kin. Sol. pH 7.4
# Description: Stock solutions of test compounds were prepared in DMSO at the concentration of 10 mM. The stock solutions of positive control compound were prepared in DMSO at the concentration of 30 mM. Progesterone was used as positive control in the assay. 30 μL stock solution of each compound was placed in order into their proper 96-well rack, followed by adding 970 μL of PBS at pH 7.4 into each vial of the cap-less solubility sample plate. This study was performed in duplicate. One stir stick was added to each vial and then vials were sealed using a molded PTDE/SIL 96-Well Plate Cover. The Solubility Sample plate was transferred to the Thermomixer Comfort plate shaker and incubated at RT for 2 hours with shaking at 1100 rpm. After 2 hours incubation, stir sticks were removed using a big magnet and all samples from the Solubility Sample plate were transferred into the filter plate. All the samples were filtered by using the vacuum manifold. The filtered samples were diluted with methanol. Standards of each test compound were prepared at 0.3, 0.09 and 0.1 μM concentrations and both the test samples and standards were analyzed by LC-MS and the test samples were quantified against a standard of known concentration in DMSO using mass spectral peak identification and quantitation.
# [4] = Dissolution Assay in Fasted Simulated Gastric Fluid; type: physicochemical; details: 37° C., 50 rpm, compressed disc
# Description: The dissolution bath was filled with 900 mL of media for testing, the bath temperature held at 37° C., the rotation rate of the apparatus was 50 rpm, the draw point for the sampling probe was set exactly halfway between the surface of the media and the surface of the disc. The test article (0.4 g) was compressed into a disc using a Woods apparatus. The sampling time points were 10, 30, 60, 90, 120, 150 & 180. The samples were analysed by HPLC for concentration against a sample preparation of known concentration (ca. 0.5 mg/ml). Dissolution rate was derived from the curve of concentration against time.
# [5] = Pharmacokinetic Study in Dogs; type: in vivo; details: male, Beagle; dog, oral gavage 10 mg/kg, 20% HPβCD aq., plasma
# Description: Male Beagle dogs (9-14 kg; 2.5 to 5.5 years of age) housed one per cage under standard laboratory conditions were fasted for approximately 16 to 17 hours prior to dosing with food returned approximately 2 hours after dosing. […] Blood samples were collected from the jugular vein (˜1.5 mL) by venipuncture, and stored in tubes treated with K2EDTA, then centrifuged (3000 g, 4° C., 5 min). The plasma samples were transferred and stored at −70° C. until analysis. Bioanalysis: Concentrations for experimental samples and plasma calibration standards were determined by LC/MS/MS (API-5500, reverse-phase chromatography, APCI) following extraction by plasma precipitation with cold acetonitrile (4:1 ACN/plasma by volume) containing verapamil as an internal standard. PK Analysis: The individual animal plasma concentration-time data was analyzed by noncompartmental analysis (linear trapazoidal fitting) using PK Solver software (v2.0).
# TYK2 = TYK2 (Homo sapiens (Human), UniProt P29597); assay: 1 mM ATP Tyk2 Caliper Assay; type: biochemical; details: ATP 1000 uM
# Description: Compounds were serially diluted in DMSO then further diluted in 1x kinase buffer: 5 uL of buffer diluted compound was added into wells first, then 10 uL of Tyk2 enzyme mix was added into wells, followed by 10 uL of substrate mix to start reaction. Reaction was incubated at 28° C. for 25 min and then added 25 uL stop buffer. The reaction mixture was read by a Caliper […]. Final concentrations for assay conditions were: 25 mM HEPES, pH 7.5, 0.01% Brij-35, 0.01% Triton, 0.5 mM EGTA, 2 mM DTT, 10 mM MgCl2, TYK2 4 nM, ATP concentration 1000 uM, and P30 3 uM.
# [6] = Solid form stability of Compound 1 mesylate forms; type: physicochemical; details: for solid form stability at ambient conditions: drying / ambient conditions
# Chain of TYK2 (P29597 whole entry): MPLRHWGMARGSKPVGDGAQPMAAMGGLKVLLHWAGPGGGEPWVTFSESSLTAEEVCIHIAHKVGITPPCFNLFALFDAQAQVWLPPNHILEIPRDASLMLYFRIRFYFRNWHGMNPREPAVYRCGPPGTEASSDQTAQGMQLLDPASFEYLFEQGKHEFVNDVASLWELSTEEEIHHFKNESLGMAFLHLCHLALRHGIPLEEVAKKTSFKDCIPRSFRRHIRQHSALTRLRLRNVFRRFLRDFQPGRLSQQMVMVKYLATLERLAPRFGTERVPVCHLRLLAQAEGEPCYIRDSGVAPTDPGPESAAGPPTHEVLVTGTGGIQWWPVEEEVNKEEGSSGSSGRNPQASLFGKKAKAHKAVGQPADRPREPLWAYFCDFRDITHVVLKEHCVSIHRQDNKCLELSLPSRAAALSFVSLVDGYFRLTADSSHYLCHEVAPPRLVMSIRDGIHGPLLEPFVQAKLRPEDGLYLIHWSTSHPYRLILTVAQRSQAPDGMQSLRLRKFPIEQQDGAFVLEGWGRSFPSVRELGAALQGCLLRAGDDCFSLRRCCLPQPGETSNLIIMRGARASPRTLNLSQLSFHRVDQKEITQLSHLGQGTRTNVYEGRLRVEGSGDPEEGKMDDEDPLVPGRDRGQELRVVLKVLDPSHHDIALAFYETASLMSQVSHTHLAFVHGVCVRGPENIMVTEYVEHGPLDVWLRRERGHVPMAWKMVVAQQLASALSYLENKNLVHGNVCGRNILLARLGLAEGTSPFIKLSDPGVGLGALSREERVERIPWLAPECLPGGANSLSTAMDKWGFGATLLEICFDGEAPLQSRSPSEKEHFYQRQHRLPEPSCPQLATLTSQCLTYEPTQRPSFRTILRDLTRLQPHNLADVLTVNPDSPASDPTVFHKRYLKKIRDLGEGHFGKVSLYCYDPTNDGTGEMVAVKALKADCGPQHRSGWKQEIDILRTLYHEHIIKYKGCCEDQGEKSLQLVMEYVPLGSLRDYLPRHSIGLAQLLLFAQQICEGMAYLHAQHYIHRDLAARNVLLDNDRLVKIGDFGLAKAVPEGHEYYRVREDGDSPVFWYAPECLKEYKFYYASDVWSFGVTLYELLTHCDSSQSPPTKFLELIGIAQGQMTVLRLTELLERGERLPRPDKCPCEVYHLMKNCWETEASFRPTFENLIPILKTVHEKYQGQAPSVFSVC
smiles,measurement,setting,value
O=C1NCc2nc(-c3c(F)cccc3F)cc(Nc3ccc(C(=O)N4CCCC4)cc3)c21 [Compound 1],"Papp A→B at 2 h, 5 μM",[1],5.77 ×10⁻⁶ cm/s
same,CLint scaled at 2 μM,[2],0.62 mL/min/kg
same,solubility kinetic at 2 h,[3],274 µM
same,dissolution rate in Fasted Simulated Gastric Fluid (FaSSGF),[4],57.5 μg/cm^2/min
same,AUC(0-t),[5],18700 ng·h/mL
same,Cmax,[5],2100 ng/mL
O=C1NCc2nc(-c3c(F)cccc3F)cc(Nc3ccc(N4CCCC4)cn3)c21 [Compound 7],"Papp A→B at 2 h, 5 μM",[1],13.5 ×10⁻⁶ cm/s
same,IC50,TYK2,390 nM
same,CLint scaled at 2 μM,[2],10.9 mL/min/kg
same,solubility kinetic at 2 h,[3],< 0.5 µM
O=C1NCc2nc(-c3c(F)cccc3F)cc(Nc3ccc(N4CCOCC4)cn3)c21 [Compound 8],"Papp A→B at 2 h, 5 μM",[1],13.1 ×10⁻⁶ cm/s
same,IC50,TYK2,33 nM
same,CLint scaled at 2 μM,[2],1.2 mL/min/kg
same,solubility kinetic at 2 h,[3],11.9 µM
O=C1NCc2nc(-c3c(F)cccc3F)cc(Nc3ccc(C(=O)N4CCOCC4)cc3)c21 [Compound 9],"Papp A→B at 2 h, 5 μM",[1],3.43 ×10⁻⁶ cm/s
same,IC50,TYK2,134 nM
same,CLint scaled at 2 μM,[2],3 mL/min/kg
same,solubility kinetic at 2 h,[3],172 µM
same,dissolution rate in Fasted Simulated Gastric Fluid (FaSSGF),[4],21.2 μg/cm^2/min
same,AUC(0-t),[5],10200 ng·h/mL
same,Cmax,[5],1070 ng/mL
O=C1NCc2nc(-c3c(F)cccc3F)cc(Nc3ccc(C(=O)N4CCCCC4)cc3)c21 [Compound 10],"Papp A→B at 2 h, 5 μM",[1],4.03 ×10⁻⁶ cm/s
same,IC50,TYK2,90 nM
same,CLint scaled at 2 μM,[2],7.81 mL/min/kg
same,solubility kinetic at 2 h,[3],1.45 µM
CCN(CC)C(=O)c1ccc(Nc2cc(-c3c(F)cccc3F)nc3c2C(=O)NC3)cc1 [Compound 11],"Papp A→B at 2 h, 5 μM",[1],5.62 ×10⁻⁶ cm/s
same,IC50,TYK2,119 nM
same,solubility kinetic at 2 h,[3],1.86 µM
CC1(O)CCN(C(=O)c2ccc(Nc3cc(-c4c(F)cccc4F)nc4c3C(=O)NC4)cc2)CC1 [Compound 12],"Papp A→B at 2 h, 5 μM",[1],0.41 ×10⁻⁶ cm/s
same,IC50,TYK2,136 nM
same,solubility kinetic at 2 h,[3],237 µM
O=C1NCc2nc(-c3c(F)cccc3F)cc(Nc3ccc(C(=O)N4CCOCC4)nc3)c21 [Compound 13],"Papp A→B at 2 h, 5 μM",[1],2.89 ×10⁻⁶ cm/s
same,CLint scaled at 2 μM,[2],1.9 mL/min/kg
same,solubility kinetic at 2 h,[3],252 µM
N#Cc1cccc(F)c1-c1cc(Nc2ccc(C(=O)N3CCOCC3)cc2)c2c(n1)CNC2=O [Compound 14],"Papp A→B at 2 h, 5 μM",[1],2.08 ×10⁻⁶ cm/s
same,IC50,TYK2,24.2 nM
same,solubility kinetic at 2 h,[3],271 µM
O=C1NCc2nc(-c3c(F)cccc3F)cc(Nc3ccc(C(=O)N4CCC4)cc3)c21 [Compound 15],"Papp A→B at 2 h, 5 μM",[1],7.59 ×10⁻⁶ cm/s
same,IC50,TYK2,74.1 nM
same,CLint scaled at 2 μM,[2],1.78 mL/min/kg
same,solubility kinetic at 2 h,[3],3.75 µM
N#Cc1cccc(F)c1-c1cc(Nc2ccc(C(=O)N3CCCC3)cc2)c2c(n1)CNC2=O [Compound 16],"Papp A→B at 2 h, 5 μM",[1],2.63 ×10⁻⁶ cm/s
same,IC50,TYK2,17.7 nM
same,solubility kinetic at 2 h,[3],32.9 µM
O=C1NCc2nc(-c3c(F)cccc3F)cc(Nc3ccc(C(=O)N4C[C@H]5COC[C@H]5C4)cc3)c21 [Compound 17],"Papp A→B at 2 h, 5 μM",[1],1.52 ×10⁻⁶ cm/s
same,IC50,TYK2,88.6 nM
same,solubility kinetic at 2 h,[3],205 µM
CS(=O)(=O)O.O=C1NCc2nc(-c3c(F)cccc3F)cc(Nc3ccc(C(=O)N4CCCC4)cc3)c21 [Form III of Compound 1 mesylate],solid form stability at ambient conditions,[6],transition to Form IV
CS(=O)(=O)O.O=C1NCc2nc(-c3c(F)cccc3F)cc(Nc3ccc(C(=O)N4CCCC4)cc3)c21 [Form IV of Compound 1 mesylate],solid form stability at ambient conditions,[6],stable
CS(=O)(=O)O.O=C1NCc2nc(-c3c(F)cccc3F)cc(Nc3ccc(C(=O)N4CCCC4)cc3)c21 [Form V of Compound 1 mesylate],solid form stability upon grinding,[6]; grinding,transition to Form I
